# Experimental data from ChEMBL document CHEMBL4190175 (Medchemcomm, 2016).
# What was measured:
# [1] = Lipophilicity, log D of the compound; type: physicochemical; conditions: octanol/water
# [2] = Ratio of permeability from basolateral to apical side over apical to basolateral side in RRCK cells expressing MDR1; type: ADME, cell-based, Canis lupus familiaris; conditions: dog, mdckii-le
# [3] = biological target: Potassium voltage-gated channel subfamily A member 5 (Homo sapiens) (UniProt P22460); test: Inhibition of Kv1.5 (unknown origin)
# [4] = Fraction unbound in dog plasma; type: ADME, cell-free, Canis lupus familiaris
# [5] = biological target: Transient receptor potential cation channel subfamily M member 8 (Homo sapiens, UniProt Q7Z2W7); test: Inhibition of human TRPM8
# [6] = Inhibition of sodium channel site 2 (unknown origin); set-up: species or system Homo sapiens
# Cytochrome P450 2C19 = Cytochrome P450 2C19 (Homo sapiens, UniProt P33261); test: Inhibition of CYP2C19 (unknown origin); type: ADME
# [7] = biological target: T1, Transient receptor potential cation channel subfamily A member 1 (Homo sapiens, UniProt O75762); test: Antagonist activity at full length human TRPA1 at holding potential of 15 mV measured after 1 min by PatchXpress electrophysiology assay
# Cytochrome P450 3A4 = Cytochrome P450 3A4 (Homo sapiens, UniProt P08684); test: Inhibition of CYP3A4 (unknown origin); type: ADME
# [8] = Volume of distribution at steady state in rat; type: ADME, organism-based; conditions: in vivo, read-out: Vdss
# [9] = biological target: Transient receptor potential cation channel subfamily A member 1 (Mus musculus, UniProt Q8BLA8); test: Antagonist activity at mouse TRPA1 by electrophysiology assay
# Cytochrome P450 1A2 = biological target: T2, Cytochrome P450 1A2 (Homo sapiens, UniProt P05177); test: Inhibition of CYP1A2 (unknown origin); type: ADME
# T2 sequence (P05177 whole entry): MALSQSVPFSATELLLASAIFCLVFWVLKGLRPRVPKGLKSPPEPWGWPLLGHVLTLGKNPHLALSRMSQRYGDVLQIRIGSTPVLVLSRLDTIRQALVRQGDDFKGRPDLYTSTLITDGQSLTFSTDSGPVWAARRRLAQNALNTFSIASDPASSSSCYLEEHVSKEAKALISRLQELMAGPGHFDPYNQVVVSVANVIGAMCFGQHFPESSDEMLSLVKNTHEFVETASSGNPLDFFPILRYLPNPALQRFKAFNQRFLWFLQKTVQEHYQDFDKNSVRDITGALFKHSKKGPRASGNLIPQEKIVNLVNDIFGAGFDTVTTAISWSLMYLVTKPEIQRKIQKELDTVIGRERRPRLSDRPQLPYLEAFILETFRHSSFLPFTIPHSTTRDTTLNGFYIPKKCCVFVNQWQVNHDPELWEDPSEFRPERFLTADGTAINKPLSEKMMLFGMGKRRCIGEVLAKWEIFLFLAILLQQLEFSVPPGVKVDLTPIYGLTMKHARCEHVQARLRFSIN
# [10] = biological target: Sodium channel protein type 5 subunit alpha (Homo sapiens, UniProt Q14524); test: Inhibition of Nav1.5 (unknown origin)
# [11] = Thermodynamic solubility of the compound; type: physicochemical; conditions: read-out: Therm_solubility
# [12] = Antagonist activity at full length opossum TRPA1 at holding potential of 15 mV measured after 1 min by PatchXpress electrophysiology assay; set-up: species or system Monodelphis domestica
# Hepatocyte [13] = test: Stability in rat hepatocytes; type: ADME, cell-based
# [14] = Drug uptake in Sprague-Dawley rat skin epidermal layer at 0.68 mg applied topically measured after 24 hrs; type: ADME, tissue-based, Skin epidermis; conditions: topical or ocular, read-out: Drug uptake
# [15] = Clearance in rat; type: ADME, organism-based; conditions: in vivo
# [16] = biological target: T3, Potassium voltage-gated channel subfamily KQT member 1 (Homo sapiens, UniProt P51787); test: Inhibition of KvLQT1 (unknown origin)
# T3 sequence (P51787 whole entry): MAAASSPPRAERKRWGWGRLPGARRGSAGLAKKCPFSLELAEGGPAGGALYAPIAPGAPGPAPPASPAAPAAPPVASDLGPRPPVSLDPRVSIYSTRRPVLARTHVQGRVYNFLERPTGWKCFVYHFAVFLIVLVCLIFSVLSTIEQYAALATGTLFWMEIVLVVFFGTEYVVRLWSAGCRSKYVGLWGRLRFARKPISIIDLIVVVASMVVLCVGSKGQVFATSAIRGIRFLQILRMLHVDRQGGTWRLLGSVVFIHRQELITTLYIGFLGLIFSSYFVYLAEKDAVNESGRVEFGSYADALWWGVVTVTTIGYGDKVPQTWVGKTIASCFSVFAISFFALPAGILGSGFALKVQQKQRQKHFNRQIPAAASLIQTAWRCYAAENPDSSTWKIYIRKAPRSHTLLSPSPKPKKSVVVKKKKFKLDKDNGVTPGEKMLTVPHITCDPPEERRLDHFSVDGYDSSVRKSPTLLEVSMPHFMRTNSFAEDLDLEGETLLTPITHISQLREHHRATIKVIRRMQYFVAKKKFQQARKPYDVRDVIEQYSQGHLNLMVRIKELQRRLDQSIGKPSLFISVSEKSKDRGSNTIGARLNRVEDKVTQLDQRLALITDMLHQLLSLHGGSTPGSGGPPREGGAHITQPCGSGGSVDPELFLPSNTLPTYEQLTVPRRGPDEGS
# [17] = Half life in rat; type: ADME, organism-based; conditions: in vivo
# [18] = Permeability in Sprague-Dawley rat skin at 0.68 mg applied topically measured after 24 hrs; type: ADME, tissue-based, Zone of skin; conditions: in vivo, topical_or_ocular
# [19] = Antagonist activity at opossum TRPA1 hS5 chimera containing (867 to 983 residues) expressed in 293-T-REx cells at holding potential of 15 mV measured after 1 min by PatchXpress electrophysiology assay; type: cell-based; conditions: Monodelphis domestica, 293Trex
# [20] = Stability in rat liver microsomes; type: ADME, microsome; conditions: read-out: Stability
# Cytochrome P450 2D6 = Cytochrome P450 2D6 (Homo sapiens, UniProt P10635); test: Inhibition of CYP2D6 (unknown origin); type: ADME
# [21] = Antagonist activity at pig TRPA1 by electrophysiology assay; set-up: species or system Sus scrofa
# [22] = biological target: T4, Voltage-gated inwardly rectifying potassium channel KCNH2 (Homo sapiens, UniProt Q12809); test: Inhibition of human ERG
# Salmonella typhimurium = test: Genotoxicity in Salmonella typhimurium by Ames test; type: toxicity, organism-based; conditions: salmonella enterica subsp. enterica serovar typhimurium
# [23] = Stability in dog plasma; type: ADME, cell-free, Canis lupus familiaris; conditions: read-out: Stability
# [24] = Fraction unbound in human plasma; type: ADME, cell-free
# [25] = biological target: Transient receptor potential cation channel subfamily A member 1 (Rattus norvegicus, UniProt Q6RI86); test: Antagonist activity at rat TRPA1 by electrophysiology assay
# [26] = biological target: Transient receptor potential cation channel subfamily V member 1 (Homo sapiens, UniProt Q8NER1); test: Inhibition of human TRPV1
# [27] = biological target: T4, Voltage-gated inwardly rectifying potassium channel KCNH2; test: Inhibition of dofetilide binding to human ERG
# [28] = Drug uptake in Sprague-Dawley rat skin dermal layer at 0.68 mg applied topically measured after 24 hrs; type: ADME, tissue-based, Dermis; conditions: topical or ocular, read-out: Drug uptake
# Hepatocyte [29] = test: Stability in human hepatocytes; type: ADME, cell-based
# [30] = Kinetic solubility of the compound at pH 6.5; type: physicochemical; conditions: buffer, read-out: Kinetic_solubility
# [31] = Stability in human liver microsomes assessed as metabolic turnover number at 10 uM after 15 mins by LC-MS/UV analysis; type: ADME, microsome; conditions: read-out: Stability
# [32] = biological target: T1, Transient receptor potential cation channel subfamily A member 1; test: Antagonist activity at human TRPA1 oS5 chimera containing (870 to 896 residues) expressed in 293-T-REx cells at holding potential of 15 mV measured after 1 min by PatchXpress electrophysiology assay; type: cell-based
# T4 sequence (Q12809 whole entry): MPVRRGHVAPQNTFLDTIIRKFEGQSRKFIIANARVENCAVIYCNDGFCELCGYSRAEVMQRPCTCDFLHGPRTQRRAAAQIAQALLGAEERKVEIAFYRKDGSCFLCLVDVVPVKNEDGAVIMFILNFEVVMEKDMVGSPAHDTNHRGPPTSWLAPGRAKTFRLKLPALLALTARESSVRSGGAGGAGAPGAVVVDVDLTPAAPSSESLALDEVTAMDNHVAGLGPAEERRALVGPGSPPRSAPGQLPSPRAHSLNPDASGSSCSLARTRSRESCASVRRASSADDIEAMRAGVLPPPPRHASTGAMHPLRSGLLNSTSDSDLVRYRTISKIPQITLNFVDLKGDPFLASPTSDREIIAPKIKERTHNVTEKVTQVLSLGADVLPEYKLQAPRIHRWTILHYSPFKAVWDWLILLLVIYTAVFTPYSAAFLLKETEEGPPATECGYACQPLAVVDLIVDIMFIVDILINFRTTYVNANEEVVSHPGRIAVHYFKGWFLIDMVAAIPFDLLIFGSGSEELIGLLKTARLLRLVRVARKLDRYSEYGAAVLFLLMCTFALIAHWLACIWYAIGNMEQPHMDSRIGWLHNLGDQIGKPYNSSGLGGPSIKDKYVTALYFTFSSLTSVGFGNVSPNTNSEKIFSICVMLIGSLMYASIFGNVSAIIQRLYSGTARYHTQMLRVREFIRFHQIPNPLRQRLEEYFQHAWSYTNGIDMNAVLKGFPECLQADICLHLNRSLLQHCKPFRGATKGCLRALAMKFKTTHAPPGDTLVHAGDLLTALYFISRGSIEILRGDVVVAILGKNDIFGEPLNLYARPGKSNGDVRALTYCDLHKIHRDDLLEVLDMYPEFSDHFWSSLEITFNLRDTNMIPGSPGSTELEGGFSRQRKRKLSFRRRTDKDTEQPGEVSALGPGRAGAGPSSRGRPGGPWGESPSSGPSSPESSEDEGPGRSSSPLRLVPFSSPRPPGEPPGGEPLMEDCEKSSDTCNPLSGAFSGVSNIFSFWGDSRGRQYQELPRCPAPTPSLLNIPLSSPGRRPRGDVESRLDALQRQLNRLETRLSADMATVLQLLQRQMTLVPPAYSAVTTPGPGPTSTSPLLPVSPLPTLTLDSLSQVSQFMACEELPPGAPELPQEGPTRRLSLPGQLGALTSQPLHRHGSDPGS
# Transient receptor potential cation channel subfamily A member 1 (Rattus norvegicus, UniProt Q6RI86), sequence (Q6RI86 whole entry): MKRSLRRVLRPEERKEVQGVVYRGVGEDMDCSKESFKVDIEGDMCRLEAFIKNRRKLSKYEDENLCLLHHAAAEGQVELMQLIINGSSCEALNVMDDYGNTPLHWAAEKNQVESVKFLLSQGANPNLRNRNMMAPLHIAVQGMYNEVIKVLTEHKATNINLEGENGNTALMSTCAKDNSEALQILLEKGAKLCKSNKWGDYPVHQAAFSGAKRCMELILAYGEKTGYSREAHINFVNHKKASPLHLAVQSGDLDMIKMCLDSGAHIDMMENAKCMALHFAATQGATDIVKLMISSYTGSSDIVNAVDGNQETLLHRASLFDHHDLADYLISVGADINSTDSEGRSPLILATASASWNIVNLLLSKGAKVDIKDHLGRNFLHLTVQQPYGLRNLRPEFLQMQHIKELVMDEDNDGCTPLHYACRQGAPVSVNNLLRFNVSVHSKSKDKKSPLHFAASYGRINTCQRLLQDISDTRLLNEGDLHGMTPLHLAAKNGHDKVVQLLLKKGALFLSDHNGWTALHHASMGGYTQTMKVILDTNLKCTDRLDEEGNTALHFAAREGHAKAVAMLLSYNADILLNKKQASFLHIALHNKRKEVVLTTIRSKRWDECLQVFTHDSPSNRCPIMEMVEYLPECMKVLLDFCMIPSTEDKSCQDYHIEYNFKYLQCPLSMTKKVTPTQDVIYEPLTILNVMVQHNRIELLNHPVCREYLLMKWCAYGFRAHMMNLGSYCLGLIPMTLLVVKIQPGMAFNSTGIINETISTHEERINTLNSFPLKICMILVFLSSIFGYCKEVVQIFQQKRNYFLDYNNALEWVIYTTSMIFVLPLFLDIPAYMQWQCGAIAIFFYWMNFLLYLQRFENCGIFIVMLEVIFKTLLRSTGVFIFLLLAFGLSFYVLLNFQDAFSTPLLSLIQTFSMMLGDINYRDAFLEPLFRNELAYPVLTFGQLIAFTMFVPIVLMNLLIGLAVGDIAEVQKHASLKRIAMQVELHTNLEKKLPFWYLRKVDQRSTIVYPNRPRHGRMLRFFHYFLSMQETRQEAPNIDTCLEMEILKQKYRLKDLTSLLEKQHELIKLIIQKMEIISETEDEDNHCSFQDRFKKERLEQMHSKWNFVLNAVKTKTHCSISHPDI
# Transient receptor potential cation channel subfamily A member 1 (Mus musculus, UniProt Q8BLA8), sequence (Q8BLA8 whole entry): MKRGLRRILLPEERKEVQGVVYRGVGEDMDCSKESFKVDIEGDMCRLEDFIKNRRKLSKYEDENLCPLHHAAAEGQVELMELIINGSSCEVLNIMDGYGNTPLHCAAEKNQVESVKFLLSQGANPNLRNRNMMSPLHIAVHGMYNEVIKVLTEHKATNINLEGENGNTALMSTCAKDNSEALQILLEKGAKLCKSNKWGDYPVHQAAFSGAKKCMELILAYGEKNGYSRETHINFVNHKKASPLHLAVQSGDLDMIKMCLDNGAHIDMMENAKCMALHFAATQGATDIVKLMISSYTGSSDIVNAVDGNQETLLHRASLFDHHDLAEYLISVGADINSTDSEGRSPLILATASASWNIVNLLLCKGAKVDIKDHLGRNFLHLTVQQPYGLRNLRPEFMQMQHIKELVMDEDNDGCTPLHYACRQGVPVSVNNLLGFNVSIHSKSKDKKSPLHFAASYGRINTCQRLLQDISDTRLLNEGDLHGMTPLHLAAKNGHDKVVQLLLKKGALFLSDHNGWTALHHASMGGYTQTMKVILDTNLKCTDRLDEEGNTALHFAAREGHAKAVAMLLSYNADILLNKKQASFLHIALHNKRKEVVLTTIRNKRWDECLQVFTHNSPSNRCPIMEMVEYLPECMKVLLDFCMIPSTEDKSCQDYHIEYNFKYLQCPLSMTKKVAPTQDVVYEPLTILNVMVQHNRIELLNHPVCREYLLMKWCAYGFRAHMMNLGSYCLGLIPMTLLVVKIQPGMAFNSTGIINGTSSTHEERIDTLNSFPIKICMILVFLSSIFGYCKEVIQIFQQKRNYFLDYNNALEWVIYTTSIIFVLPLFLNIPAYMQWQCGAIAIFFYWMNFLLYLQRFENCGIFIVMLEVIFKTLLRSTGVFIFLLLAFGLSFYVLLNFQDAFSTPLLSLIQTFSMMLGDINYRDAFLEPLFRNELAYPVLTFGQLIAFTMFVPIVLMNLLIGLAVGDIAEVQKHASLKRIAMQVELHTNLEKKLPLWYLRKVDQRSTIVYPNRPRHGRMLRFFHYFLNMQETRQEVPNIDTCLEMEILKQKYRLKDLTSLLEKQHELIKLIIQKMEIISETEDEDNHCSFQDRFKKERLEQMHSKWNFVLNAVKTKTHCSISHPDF
# Transient receptor potential cation channel subfamily V member 1, sequence (Q8NER1 whole entry): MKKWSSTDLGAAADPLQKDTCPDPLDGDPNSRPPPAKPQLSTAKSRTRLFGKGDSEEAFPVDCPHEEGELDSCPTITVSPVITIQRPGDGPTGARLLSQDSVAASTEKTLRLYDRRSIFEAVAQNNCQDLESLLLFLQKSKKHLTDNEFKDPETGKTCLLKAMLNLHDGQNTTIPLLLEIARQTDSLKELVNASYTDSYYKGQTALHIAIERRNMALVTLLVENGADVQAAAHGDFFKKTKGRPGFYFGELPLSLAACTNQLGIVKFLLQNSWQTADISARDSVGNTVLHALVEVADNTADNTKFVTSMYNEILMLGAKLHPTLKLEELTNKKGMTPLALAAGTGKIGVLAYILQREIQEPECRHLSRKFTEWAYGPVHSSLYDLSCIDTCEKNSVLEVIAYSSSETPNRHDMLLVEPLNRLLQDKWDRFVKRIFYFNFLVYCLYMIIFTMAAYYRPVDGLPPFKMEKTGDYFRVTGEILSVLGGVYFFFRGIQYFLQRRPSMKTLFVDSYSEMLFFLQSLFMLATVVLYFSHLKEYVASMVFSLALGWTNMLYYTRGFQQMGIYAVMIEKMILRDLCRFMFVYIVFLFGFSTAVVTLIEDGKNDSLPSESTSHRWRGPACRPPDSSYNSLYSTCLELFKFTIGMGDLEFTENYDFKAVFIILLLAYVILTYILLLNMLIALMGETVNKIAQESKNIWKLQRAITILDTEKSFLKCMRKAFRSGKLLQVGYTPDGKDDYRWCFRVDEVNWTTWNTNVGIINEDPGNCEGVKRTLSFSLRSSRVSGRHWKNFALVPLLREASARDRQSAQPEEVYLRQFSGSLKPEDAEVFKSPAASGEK
# Cytochrome P450 2D6, sequence (P10635 whole entry): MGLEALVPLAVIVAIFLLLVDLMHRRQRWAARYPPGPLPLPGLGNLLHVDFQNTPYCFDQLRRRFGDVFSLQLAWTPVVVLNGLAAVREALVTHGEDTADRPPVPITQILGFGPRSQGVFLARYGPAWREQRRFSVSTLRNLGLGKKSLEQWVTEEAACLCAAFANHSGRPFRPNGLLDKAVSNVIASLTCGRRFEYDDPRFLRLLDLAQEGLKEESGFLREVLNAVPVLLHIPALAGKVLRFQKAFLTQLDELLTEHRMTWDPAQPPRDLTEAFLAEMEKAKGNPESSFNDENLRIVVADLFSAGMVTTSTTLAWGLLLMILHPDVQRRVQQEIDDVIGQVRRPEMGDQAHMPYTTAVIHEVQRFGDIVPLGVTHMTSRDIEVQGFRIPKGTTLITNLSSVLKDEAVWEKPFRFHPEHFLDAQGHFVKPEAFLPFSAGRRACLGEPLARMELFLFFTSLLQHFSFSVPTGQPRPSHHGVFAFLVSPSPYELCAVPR
compound,measurement,setting,value
O=C(NC[C@@H](Cc1ccccc1)N1CCC(O)(C(F)(F)F)CC1)C1(c2ccc(Cl)cc2)CCCC1,logD,[1],4.7 to 5
same,Ratio,[2],11
same,INH,[3],> 3000 nM
same,fraction unbound,[4],0.0008
same,IC50,[5],> 3000 nM
same,IC50,[6],730 nM
same,IC50,Cytochrome P450 2C19,3150 nM
same,IC50,[7],0.72 to 8 nM
same,IC50,Cytochrome P450 3A4,2160 nM
same,Vd,[8],3.99 L/kg
same,IC50,[9],4 nM
same,IC50,Cytochrome P450 1A2,> 30000 nM
same,INH,[10],> 3000 nM
same,solubility thermodynamic,[11],0.6 µg/mL
same,IC50,[12],≥ 3000 nM
same,Stability,Hepatocyte [13],30 µL/min/mg
same,concentration at 24 h,[14],3.13e+06 ng/g
same,clearance,[15],42 mL/min/kg
same,INH,[16],> 3000 nM
same,half-life,[17],4.4 h
same,permeability,[18],0.1 ×10⁻⁵ cm/hr
same,IC50,[19],20 nM
same,microsomal CLint,[20],524 µL/min/mg
same,IC50,Cytochrome P450 2D6,450 nM
same,IC50,[21],65 nM
same,IC50,[22],> 3000 nM
same,Activity,Salmonella typhimurium,Non-Toxic
same,half-life,[23],> 6 h
same,fraction unbound,[24],0.0011
same,IC50,[25],3 nM
same,IC50,[26],> 3000 nM
same,Ki,[27],25700 nM
same,concentration at 24 h,[28],640000 ng/g
same,Stability,Hepatocyte [29],38 µL/min/mg
same,solubility kinetic,[30],12 µM
same,microsomal CLint at 10 µM,[31],246 µL/min/mg
same,IC50,[32],1580 nM
